Experimental data as given in publication PMC5374635, “Inhibitory Potential of Constituents from Osmanthus fragrans and Structural Analogues Against Advanced Glycation End Products, α-Amylase, α-Glucosidase, and Oxidative Stress” (Scientific Reports, 2017).
In brackets after ≈: the same amount, converted by molar mass.

How the values were obtained:
[1] = DPPH radical scavenging activity; conditions: for IC50 values, DPPH: means ± SE; for times more active than ascorbic acid in DPPH radical scavenging: ratio of IC50 values versus ascorbic acid
Experimental: DPPH radical scavenging activity of each sample for the inhibition of diabetic complications was evaluated as described previously. Methanol solution (100 μL) containing some concentrations of the sample or ascorbic acid (0.2 mg/mL) as a positive control was mixed with 0.2 mM DPPH (100 μL) in wells of a 96-well microplate. Each reaction volume was mixed and allowed to stand in the dark at 28 °C for 30 min. […] The DPPH solution was freshly prepared daily, and was covered and kept in the dark at 4 °C until the measurements were made. Measurements were performed at least in triplicate.

AGEs formation = assay: Inhibition of AGEs formation (bovine serum albumin with fructose/glucose, fluorescence); format: biochemical; conditions: for IC50 values, AGE (inhibition of AGEs formation): means ± SE, 37 °C, 7 days; for times more active than aminoguanidine in inhibition of AGEs formation: ratio of IC50 values versus aminoguanidine
Experimental: The inhibitory activity against AGEs formation was measured as described previously. To prepare the AGEs reaction solution, bovine serum albumin (10 mg/mL) dissolved in 50 mM SPB (pH 7.4) was added to 200 mM fructose, 200 mM glucose, and 0.02% NaN3 to prevent the growth of bacteria. The reaction solution (950 μL) was mixed with various concentrations of the samples (50 μL) in 10% (CH3)2SO. After incubation at 37 °C for 7 days, the fluorescence intensity of the reaction solution was analyzed using a spectrofluorometric detector (Bio-Tek Inc., Winooski, VT, USA) with an excitation wavelength of 350 nm and an emission wavelength of 450 nm. Aminoguanidine hydrochloride served as a positive control.

[2] = biological target: α-glucosidase (EC 3.2.1.20); conditions: for IC50 values, α–Glucosidase: means ± SE; for times more active than acarbose against α-glucosidase: ratio of IC50 values versus acarbose
Experimental: The inhibitory activity of each sample against α-glucosidase was measured as previously described[24]. Sample (25 μL) and phosphate buffer (25 μL; PB, 100 mM and pH 6.8) containing α-glucosidase (0.2 U/mL) was preincubated in a 96 well plate at 37 °C for 10 min. After 10 min, 5 mM PNPG (50 μL) in 100 mM PB was added and incubated at 37 °C for 15 min. The reaction was stopped by adding 150 μL of 200 mM NaCO3.

[3] = biological target: T1, porcine pancreatic α-amylase (EC 3.2.1.1, type VI) (Sus scrofa, UniProt P00690); assay: α-Amylase inhibition; format: biochemical; conditions: for IC50: means ± SE; for times more active than acarbose against α-amylase: ratio of IC50 values versus acarbose
T1 construct: purchased Sigma-Aldrich (St. Louis, MO, USA) type VI (catalogue number not given)
T1 sequence (P00690 16-511): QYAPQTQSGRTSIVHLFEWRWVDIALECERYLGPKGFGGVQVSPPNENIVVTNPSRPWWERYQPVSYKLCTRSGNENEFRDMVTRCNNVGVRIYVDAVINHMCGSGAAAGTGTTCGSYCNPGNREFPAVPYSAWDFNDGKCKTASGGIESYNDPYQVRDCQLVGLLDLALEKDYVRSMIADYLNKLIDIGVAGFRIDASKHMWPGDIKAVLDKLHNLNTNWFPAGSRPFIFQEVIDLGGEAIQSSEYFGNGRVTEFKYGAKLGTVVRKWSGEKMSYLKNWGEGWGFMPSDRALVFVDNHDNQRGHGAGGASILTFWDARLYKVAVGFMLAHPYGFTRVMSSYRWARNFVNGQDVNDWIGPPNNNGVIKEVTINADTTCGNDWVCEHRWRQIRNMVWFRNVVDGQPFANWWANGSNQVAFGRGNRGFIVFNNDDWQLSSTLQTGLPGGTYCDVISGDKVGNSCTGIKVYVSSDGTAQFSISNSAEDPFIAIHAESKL
Experimental: The inhibitory activity of each sample against α-amylase was measured as described previously. Sample (40 μL) dissolved in sodium phosphate buffer (SPB, 20 mM and pH 6.9) with 6 mM NaCl was added to 1.0 U/ml α-amylase (200 μL) in SPB and incubated at 30 °C for 10 min. After 10 min, 400 μL of 0.3% starch solution in SPB was added to each tube. […] Each tube was incubated in boiling water for 20 min and cooled to 27 °C. The reaction was diluted by adding 10 ml distilled water and absorbance at 540 nm was measured using a UV-Vis spectrophotometer. The control contained 20 mM SPB (pH 6.9, 200 μL) instead of α-amylase.

[4] = tested on: blood glucose levels in mice; assay: Disaccharide (sucrose) loading test; format: in vivo; conditions: fasted male mice, 50 mg/kg via stomach tube with sucrose 2.5 g/kg, at 15 and 30 mins, compared to sucrose alone
Experimental: After an overnight fast, male mice (31-35 g) were used for acute disaccharide loading tests (Fig. 2). […] A control group was loaded with sucrose only. The blood glucose levels were measured using an Accu-Check Performa portable kit, (Roche Diagnostics Korea Co., Ltd., Seoul, Korea).

MCF-7 cells = tested on: MCF-7 cells; design: method as in PMID 18386789; conditions: by inhibiting Cdk 2 activity; cited from earlier work

| SMILES | IC50 values, DPPH [1] | times more active than ascorbic acid in DPPH radical scavenging [1] | IC50 values, AGE (inhibition of AGEs formation) (AGEs formation) | times more active than aminoguanidine in inhibition of AGEs formation (AGEs formation) | IC50 values, α–Glucosidase [2] | times more active than acarbose against α-glucosidase [2] | IC50 [3] | times more active than acarbose against α-amylase [3] | effect on blood glucose levels [4] | cell proliferation of MCF-7 cells (MCF-7 cells) |
| --- | --- | --- | --- | --- | --- | --- | --- | --- | --- | --- |
| O=C1O[C@H]([C@@H](O)CO)C(O)=C1O [Ascorbic acid, reference compound] | 25.5 ± 0.4 µg/mL (≈ 145 µM) |  |  |  |  |  |  |  |  |  |
| CCCCCC=CCC=CCCCCCCCC(=O)O [9,12-Octadecadienoic acid, 9,12-octadecadienoic acid] | 6.8 ± 1.2 µg/mL (≈ 24.2 µM) | 3.75 times | 15.4 ± 1.8 µg/mL | 3.54 times | 3.4 ± 1.5 µg/mL (≈ 12.1 µM) | 22.21 times | 56.3 µM | 10.02 times | significant suppressive effect |  |
| CCCCCCCCCCCCCCCC(=O)O [1-Pentadecanecarboxylic acid, 1-pentadecanecarboxylic acid] | 20.8 ± 1.3 µg/mL (≈ 81.1 µM) |  | 40.6 ± 0.7 µg/mL |  | 55.4 ± 3.2 µg/mL (≈ 216 µM) |  | 656 µM |  |  |  |
| N=C(N)NN [Aminoguanidine, reference compound] |  |  | 54.5 ± 0.7 µg/mL |  |  |  |  |  |  |  |
| CC(=O)C=CC1C(C)=CCCC1(C)C (centres unmarked) [4-(2,6,6-trimethyl-2-cyclohexenyl)-3-buten-2-one] | 23.2 ± 2.5 µg/mL (≈ 121 µM) |  | 50.5 ± 1.8 µg/mL |  | 33.2 ± 1.8 µg/mL (≈ 173 µM) |  |  |  |  |  |
| CCC=CCC=CCC=CCCCCCCCC(=O)O [9,12,15-Octadecatrienoic acid, 9,12,15-octadecatrienoic acid] | 7.4 ± 0.9 µg/mL (≈ 26.6 µM) | 3.45 times | 18.2 ± 2.3 µg/mL | 2.95 times | 4.5 ± 2.4 µg/mL (≈ 16.2 µM) | 16.78 times | 76.1 µM | 7.47 times |  |  |
| CC(=O)C=CC1=C(C)CCCC1(C)C [4-(2,6,6-trimethyl-1-cyclohexenyl)-3-buten-2-one] | 20.5 ± 1.5 µg/mL (≈ 107 µM) | 1.24 times | 48.4 ± 2.3 µg/mL | […] | […] |  | […] | […] | weak suppressive effect | […] |
| CCCCCCCCCCCCCCCCCC(=O)O [1-Heptadecanecarboxylic acid, 1-heptadecanecarboxylic acid] | 15.6 ± 2.2 µg/mL (≈ 54.8 µM) |  | 34.7 ± 2.6 µg/mL |  | 46.2 ± 2.5 µg/mL (≈ 162 µM) |  | 494 µM |  |  |  |
| CCCCCCCCCCCCCC(=O)O [1-Tridecanecarboxylic acid, 1-tridecanecarboxylic acid] | 24.5 ± 1.8 µg/mL (≈ 107 µM) |  | 51.2 ± 1.8 µg/mL |  | 60.4 ± 1.2 µg/mL (≈ 264 µM) |  | 986 µM |  |  |  |
| CCCCCCCCC=CCCCCCCCC(=O)O [9-Octadecenoic acid, 9-octadecenoic acid] | 7.6 ± 1.5 µg/mL (≈ 26.9 µM) |  | 18.8 ± 1.1 µg/mL |  | 4.8 ± 0.9 µg/mL (≈ 17 µM) |  | 83.2 µM |  |  |  |
